Reference: paper doi:10.1101/2025.06.05.658205v3, “AsCas12a Exhibits Intrinsic, DNA-Independent ATPase Activity” (biorxiv, 2025)

Biological target: T1, AsCas12a (Acidaminococcus sp. BV3L6, UniProt U2UMQ6)
T1 construct: gene cas12a; purified wild-type protein, no crRNA mentioned in assay
Assay: radiometric TLC ATPase assay ([…] release)
Format: biochemical
Conditions: 200 µM cold ATP, 200 pM [γ-32P]ATP; 12 mM MgCl2, pH 7.5, 37 °C, 1 h; no DNA; labelled compound

T1 sequence (U2UMQ6 whole entry, looked up): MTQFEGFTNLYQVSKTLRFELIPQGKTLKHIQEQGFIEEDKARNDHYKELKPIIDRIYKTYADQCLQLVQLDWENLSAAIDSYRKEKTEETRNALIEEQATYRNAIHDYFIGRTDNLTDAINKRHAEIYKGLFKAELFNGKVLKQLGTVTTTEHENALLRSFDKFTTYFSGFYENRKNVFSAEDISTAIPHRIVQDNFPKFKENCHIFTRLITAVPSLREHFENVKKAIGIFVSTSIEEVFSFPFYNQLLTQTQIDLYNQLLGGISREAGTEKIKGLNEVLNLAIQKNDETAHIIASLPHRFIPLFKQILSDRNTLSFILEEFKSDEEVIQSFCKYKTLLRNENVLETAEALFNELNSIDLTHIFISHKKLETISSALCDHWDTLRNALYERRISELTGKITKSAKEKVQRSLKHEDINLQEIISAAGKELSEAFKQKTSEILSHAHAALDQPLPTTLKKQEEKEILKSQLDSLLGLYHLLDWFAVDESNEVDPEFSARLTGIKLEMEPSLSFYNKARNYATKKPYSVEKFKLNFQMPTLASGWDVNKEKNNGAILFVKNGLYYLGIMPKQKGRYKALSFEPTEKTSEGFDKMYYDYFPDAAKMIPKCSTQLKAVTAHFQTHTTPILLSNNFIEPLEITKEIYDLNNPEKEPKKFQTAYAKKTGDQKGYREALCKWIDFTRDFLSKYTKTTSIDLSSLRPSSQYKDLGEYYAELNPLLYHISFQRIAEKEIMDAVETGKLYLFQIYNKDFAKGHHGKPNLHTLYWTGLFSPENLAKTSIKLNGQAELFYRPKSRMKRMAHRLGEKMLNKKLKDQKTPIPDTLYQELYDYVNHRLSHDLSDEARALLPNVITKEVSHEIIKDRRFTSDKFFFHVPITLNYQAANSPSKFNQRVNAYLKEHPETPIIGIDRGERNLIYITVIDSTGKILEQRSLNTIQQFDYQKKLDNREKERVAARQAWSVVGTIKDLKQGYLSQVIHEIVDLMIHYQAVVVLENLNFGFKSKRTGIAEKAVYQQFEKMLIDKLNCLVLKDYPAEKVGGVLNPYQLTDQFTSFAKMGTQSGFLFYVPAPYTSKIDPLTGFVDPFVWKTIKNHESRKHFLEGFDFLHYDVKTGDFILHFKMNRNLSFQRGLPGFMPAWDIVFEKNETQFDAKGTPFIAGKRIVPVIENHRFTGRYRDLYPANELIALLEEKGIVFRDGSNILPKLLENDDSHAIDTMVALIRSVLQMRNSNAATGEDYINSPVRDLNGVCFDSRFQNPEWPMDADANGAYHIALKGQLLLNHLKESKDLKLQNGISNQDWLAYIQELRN

Nc1ncnc2c1ncn2[C@@H]1O[C@H](COP(=O)(O)OP(=O)(O)OP(=O)(O)O)[C@@H](O)[C@H]1O [ATP]
radiometric TLC ATPase assay (32Pi release): AsCas12a catalyzed ATP hydrolysis in a concentration and time-dependent manner
